Experimental data: patent US7566737B2 (Genfit, priority 2002, dated 2009)

Tests used:
human PPARγ = target: T1, human PPARγ (Homo sapiens, UniProt P37231); assay: PPARγ/Gal4 transactivation system; type: cell-based; conditions: 10 μM
T1 construct: expressed in transfected cells; host or cells: RK13 or COS-7
T1 sequence (P37231 238-503 limits assumed): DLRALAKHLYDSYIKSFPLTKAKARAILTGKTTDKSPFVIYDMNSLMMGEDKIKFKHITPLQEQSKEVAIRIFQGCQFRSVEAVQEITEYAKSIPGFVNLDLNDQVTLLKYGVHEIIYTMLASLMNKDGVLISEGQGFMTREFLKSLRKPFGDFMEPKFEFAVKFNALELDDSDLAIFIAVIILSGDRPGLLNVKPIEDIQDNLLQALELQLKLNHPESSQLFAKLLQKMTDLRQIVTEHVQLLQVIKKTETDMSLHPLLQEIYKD
Description: PPAR activation was tested in vitro in RK13 or COS-7 fibroblast cell lines by measuring the transcriptional activity of chimeras composed of the DNA binding domain of the yeast Gal4 transcription factor and the ligand binding domain of the different PPARs. These latter results were then confirmed in cell lines according to the following protocols.
Culture protocols: RK13 were from ECACC (Porton Down, UK) and were grown in DMEM medium supplemented with 10% (V/V) fetal calf serum, 100 U/ml penicillin (Gibco, Paisley, UK) and 2 mM L-glutamine (Gibco, Paisley, UK). COS-7 cells were from ATCC and were grown in DMEM medium supplemented with 10% (V/V) fetal calf serum, 1% penicillin/streptomycine (Biochrom, AG), 1% of amino acids (Gibco) and 1% sodium pyruvate (Gibco).
The culture medium was changed every two days. Cells were kept at 37° C. in a humidified 95% air/5% CO2 atmosphere.
Description of plasmids used for transfection: The plasmids Gal4(RE)_TkpGL3, pGal4-hPPARα, pGal4-hPPARγ, pGal4-hPPARδ and pGal4-φ have been described in the literature (Raspe E et al., 1999). The pGal4-hPPARα, pGal4-hPPARγ and pGal4-hPPARδ constructs were obtained by cloning into the pGal4-φ vector PCR-amplified DNA fragments corresponding to the DEF domains of the human PPARs nuclear receptors.
Transfection of RK13: RK13 cells were seeded in 24-well culture dishes at 5×10^4 cells/well and transfected for 2 hours with the reporter plasmid Gal4(RE)_TkpGL3 (50 ng/well), the expression vectors pGal4-φ, pGal4-hPPARα, pGal4-hPPARγ and pGal-hPPARδ (100 ng/well) and the transfection efficiency control vector pRL-CMV (1 ng/well) according to the previously described protocol (Raspe E, Madsen L, Lefebvre A M, Leitersdorf I, Gelman L, Peinado-Onsurbe J, Dallongeville J, Fruchart J C, Berge R and Staels B, 1999), then incubated for 36 hours with the test compounds. RK13 cells were incubated with the different compounds at concentrations of 10, 30 and 100 μM or 1, 10 and 100 μM for 24 hours. At the end of the experiment, the cells were lysed (Gibco, Paisley, UK) and luciferase activity was determined with a Dual-Luciferase™ Reporter Assay System kit (Promega, Madison, Wis., USA) according to the supplier's instructions. The protein content of the cell extracts was then measured with the Bio-Rad Protein Assay (Bio-Rad, Munich, Germany) as directed by the supplier.
Transfection of COS7: Cells in suspension are transfected, in the presence of 10% (V/V) fetal calf serum, with 150 ng of DNA per well with a pGal4-PPAR/Gal4(RE)_TkpGL3 ratio of 1/10. Cells are then seeded in 96 well plates (4×10^4 cells/well) and incubated for 24 hours at 37° C. Activation with compounds is performed on 24 hours at 37° C. in culture medium without serum. At the end of the activation period, cells are lysed and luciferase activity is determined, using the Steady Glow Luciferase Kit (Promega), according to the supplier's instructions.

HaCat cells = assay: Antioxidant properties on cell cultures (carboxy-H2DCFDA fluorescence, AAPH stress), keratinocytes; type: cell-based, human; conditions: 25 μM for 24 h, AAPH 750 μM
In short: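 Cells were pretreated 24 h with compound at 25 μM, loaded 30 min at 37 °C with 25 μM carboxy-H2DCFDA, then stressed 30 min with 750 μM AAPH in phenol-red- and serum-free medium. ROS read as fluorescence ([…]); activity expressed as reduction in fluorescence signal.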

[1] = tested on: hApoE2 Knock-in transgenic mice; assay: Effects on triglycerides and cholesterol metabolism in vivo; design: species or system mouse
In short: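 hApoE2 knock-in mice (n=6/group, matched for body weight and plasma lipids) dosed once daily by intragastric gavage in carboxymethylcellulose for 7 or 8 days at indicated doses. Terminal blood on EDTA; total cholesterol and triglycerides measured colorimetrically.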

[2] = tested on: C57BLKS-m Lepr^db transgenic mice; assay: Antidiabetic effect on insulin and glucose; type: in vivo, mouse; conditions: 0.1 to 100 mg/Kg/day for 28 days
Description: Genetically modified C57BLKS-m Lepr^db mice were used to asses antidiabetic effect of the inventive compounds. Mice were randomized according to their plasma lipid, glucose and insulin contents. Treatments were administered once daily by gavage (10 ml/kg) for the duration of the treatment. For oral administrations, the drugs were suspended in CMC 1% or CMC 1%+Tween 80 0.1%. The plasma glucose was measured using a kit reagent from Biomerieux (France). The plasma insulin was measured using a solid phase two-site enzyme immunoassay from Crystal Chem Inc. (USA). The results are exemplified in FIGS. 5-1 to 5-4 which illustrate the activity of inventive compounds 29 and 62 on glucose and insulin.

[3] = 200, 50, 12.5 and 3.125 mg/kg/day for 8 days

| Structure (SMILES) | maximum induction factor (human PPARγ) | antioxidant properties on cell cultures (in words) (HaCat cells) | plasma cholesterol ([1]; 50 mg/kg/day for 7 or 8 days, FIGS. 4-13, 4-15, 4-17, 4-19) | plasma triglycerides ([1]; 50 mg/kg/day for 7 or 8 days, FIGS. 4-14, 4-16, 4-18, 4-20) | cholesterol in lipoparticle subfraction (exclusion chromatography) [1, 3] | plasma cholesterol level [1, 3] | plasma triglycerides level [1, 3] | triglycerides in lipoparticle subfraction (exclusion chromatography) [1, 3] | plasma glucose level [2] | plasma insulin level [2] | cholesterol in lipoparticle subfraction (exclusion chromatography) ([1]; 50 mg/kg/day for 8 days) | plasma cholesterol ([1]; 50 mg/kg/day for 8 days) | plasma triglycerides ([1]; 50 mg/kg/day for 8 days) | triglycerides in lipoparticle subfraction (exclusion chromatography) ([1]; 50 mg/kg/day for 8 days) |
| --- | --- | --- | --- | --- | --- | --- | --- | --- | --- | --- | --- | --- | --- | --- |
| CSc1ccc(C(=O)/C=C/c2cc(C)c(OC(C)(C)C(=O)O)c(C)c2)cc1 [Compound 29, 1-[4-methylthiophenyl]-3-[3,5-dimethyl-4-carboxydimethylmethyloxyphenyl]prop-2-en-1-one] | 33.9 | antioxidant properties | decrease | decrease | decrease | dose-dependent decrease | dose-dependent decrease | decrease | decrease | decrease | – | – | – | – |
| Cc1cc(/C=C/C(=O)c2ccc(Br)cc2)cc(C)c1OC(C)(C)C(=O)O [Compound 41, 1-[4-bromophenyl]-3-[3,5-dimethyl-4-carboxydimethylmethyloxyphenyl]prop-2-en-1-one] | – | antioxidant properties | – | – | – | – | – | – | – | – | decrease | decrease | decrease | decrease |
